Source: patent publication US9675701B2, “Coloured disinfectant preparation based on bispyridiniumalkane” (L'AIR LIQUIDE, SOCIETE ANONYME POUR L'ETUDE ET …, priority 2014, dated 2017)

Assays:
[1] = Efficacy of octenidine in Octeniderm with added dye
Excerpt: However, blue dyes are not accepted by the market on account of the poor visibility of the vessels under the skin.

[2] = tested on: S. aureus ATCC 6538; experiment: Method A: remanence effect of the dried preparation on tiles, germ count determination; type: cell-based; details: preliminary experiments with a new type of method
Protocol: No in-vitro method was hitherto known for being able to rapidly examine (i.e. screen) the potential impairment of the remanent effect of antiseptic active ingredients due to added dyes, and specifically in particular in the presence of large amounts of solvents, such as alcohols. […] 0.2 ml of the test preparation was spread to the edge on a tile measuring 5×5 cm and left to dry optically. Here, solvents evaporate and the antiseptic active ingredient (octenidine was tested) remains on the tile. Then, 0.1 ml of bacteria suspension (test germ S. aureus ATCC 6538, starting germ count of the solution 10^6 CFU/ml, on the tile then 10^5 CFU/ml) is applied to an area of 3×3 cm on the tile. After the corresponding contact time, the tile is transferred to a container filled with glass beads (diameter 3-4 mm) and 10 ml of neutralization solution (TLSH) and shaken for 2 minutes on a horizontal shaker at 200 rpm. Finally, a germ count determination is performed by means of dilution series. The dilution stages 10^0, 10^−1, 10^−2 and 10^−3 are plated out. The agar plates are incubated for 24-48 hours at 36±1° C. The CFU/ml resulting therefrom is used to calculate the logarithmic reduction factor (RF) for the preparations and the water control. A high […] reduction factor means good bactericidal efficacy of the preparation. […]

Compound	restriction of the efficacy of the octenidine in Octeniderm by the dye [1]	remanence effect of octenidine in preparations which comprise the dye [2]
CCN(CC)c1ccc(C(=C2C=CC(=[N+](CC)CC)C=C2)c2cc(O)c(S(=O)(=O)[O-])cc2S(=O)(=O)[O-])cc1.CCN(CC)c1ccc(C(=C2C=CC(=[N+](CC)CC)C=C2)c2cc(O)c(S(=O)(=O)[O-])cc2S(=O)(=O)[O-])cc1.[Ca+2] [Patent Blue V]	no restriction of the efficacy	–
O=C([O-])c1ccccc1-c1c2ccc(=O)cc-2oc2cc([O-])ccc12.[Na+].[Na+] [uranine]	–	inhibited
